The values below come from PMC11528066, “Noninvasive Monitoring of Programmed Death-Ligand 2 Expression with Positron Emission Tomography using ^68Ga-labeled Peptide Antagonist in Preclinical and Exploratory Human Studies” (Research, 2024).

Peptide text beside a SMILES is read from it. * marks the point of attachment. NOTA = O=C(O)CN1CCN(CC(=O)O)CCN(CC(=O)*)CC1; AEEEA = NCCOCCOCCOCC(=O)O

For data set [1] the following is noted: Adult, PET/CT; cited from earlier work. From the text:
The kidney received the highest doses (9.83 × 10^−2 ± 2.10 × 10^−2 mSv/MBq).

Data set [2] in a line: [^18F]F-FDG PET/CT imaging in cancer patients. It counts as in vivo, human. How it is done:
The program content was explained to all healthy volunteers and cancer patients, and written informed consent was obtained. Whole-body dynamic imaging was conducted for 60 min using a PET/CT 690 Elite scanner (GE Discovery) immediately after intravenous injection of [^68Ga]Ga-HN11-1 (3.1 to 4.9 MBq/kg). A static body scan was performed 15 to 45 min after injection. All cancer patients underwent [^18F]F-FDG and [^68Ga]Ga-HN11-1 PET/CT imaging within 5 d. Two nuclear medicine physicians reconstructed and reviewed the images on GE aw 4.6 workstations and reached a consensus. They delineated the ROIs and measured the values of maximum standard uptake and average standard uptake (SUVmax and SUVmean). The biological distribution of [^68Ga]Ga-HN11-1 in healthy volunteers was determined by SUVmax and SUVmean. The OLINDA/EXM software (version 1.0, Hermes Medical Solutions AB) was used to estimate the human radiation dose based on the SUVmean of each organ.

The test system of a further data set is A549-PD-L2 cell lines. The data set is described as follows: Cell uptake assay. Particulars: A549-PD-L2 cells, n = 5; for cell uptake rate: mean ± SD. It counts as cell-based. How it is done:
Cell uptake assays were conducted to measure the uptake of [^68Ga]Ga-HN11-1 and [^68Ga]Ga-HN11-2 in A549 and A459-PD-L2 cell lines following incubation periods of 15, 30, 60, and 90 min. Blocking studies were performed by coincubating cells with an excess of precursor (HN11-1 / HN11-2), and then the cell uptakes of [^68Ga]Ga-HN11-1 and [^68Ga]Ga-HN11-2 were performed in A459-PD-L2 cell lines after 60 min of incubation. The experiment details are provided in the SI.
All tumor cells (1 × 10^6 per well) were seeded in two 24 - well plates, incubated for 24 h and then added with […] of [^68Ga]Ga-HN11-1 or [^68Ga]Ga-HN11-2 per well. After 15, 30, 60 and 90 min of uptake, the cells were separated from the medium, washed with 500 μL of cold PBS for three times and dissolved with 1 M NaOH. At different time points, these cells were collected and counted by using a γ-counter (WIZARD 2480, Pekin Elmer). For in vitro blocking experiments, cells were co-incubated with 10 μg of cold HN11-1 or HN11-2 precursor. After incubation, the cells were washed, collected and measured with a γ-counter, either. The IC50 values of [^68Ga]Ga-HN11-1 or [^68Ga]Ga-HN11-2 were determined using GraphPad Prism 8.0.2 software, respectively.

A short description of data set [3]: Pharmacokinetics in blood. It counts as in vivo. The following applies: healthy BALB/C mouse, i.v. 5.55 MBq, noncompartmental model, Phoenix WinNonlin 8.1. How it is done:
(§1) The static PET/CT imaging in A549 and A549-PD-L2 xenograft models after injection of 5.55 to 7.4 MBq (150 to 200 μCi) of [^68Ga]Ga-HN11-1 or [^68Ga]Ga-HN11-2 were acquired at 60 min. In the [^68Ga]Ga-HN11-1 + block or [^68Ga]Ga-HN11-2 + block groups, the xenograft models underwent pretreatment via intravenous injection of HN11-1 or HN-2 (10 mg/kg) before PET/CT imaging. Then, ROIs were delineated for each group. After imaging, tumor tissues from both the A549 and A459-PD-L2 xenograft tumors were extracted, and the PD-L2 expression was tested by IHC. For the pharmacokinetics study, healthy BALB/C mouse received an intravenous injection of 5.55 MBq (150 μCi) of [^68Ga]Ga-HN11-1 and [^68Ga]Ga-HN11-2. Measure the activity of blood samples (%ID/g, mean ± SD) at the corresponding time points, and the time-activity curve was plotted. Subsequently, pharmacokinetic parameters were tested using the noncompartmental model in Phoenix WinNonlin 8.1 software (Certara, USA).

Data set [4] can be described thus: Partition coefficient (log P), 1-octanol/PBS. Particulars: shake-flask 3 mL 1-octanol / 3 mL PBS pH 7.4, vortex 10 min, centrifugation 10,000 rpm 10 min, γ-counter, mean ± SD, n = 5. It is filed as physicochemical. How it is done: The partition coefficients were assessed using the method described previously. [^68Ga]Ga-HN11-1 and [^68Ga]Ga-HN11-2 was respectively introduced into a mixture comprising 3 mL of 1-octanol and 3 mL of phosphate-buffered saline (PBS) with a pH of 7.4. Following vortexing for 10 minutes and subsequent centrifugation at 10,000 rpm for 10 minutes, samples were taken from both layers and counted using a γ-counter. The log P was determined using the formula: log P = log([M]oct/[M]aq). All measurements were conducted using 5 independent samples and are presented as mean ± standard deviation (SD).

Data set [5] in a line: In vitro stability in saline (radio-HPLC). It is filed as physicochemical. The following applies: room temperature, over 4 h (0.5, 1, 2, 4 h), 3.74 MBq. How it is done: (§2) The in vitro stability of [^68Ga]Ga-HN11-1 and [^68Ga]Ga-HN11-2 (3.74 MBq) in saline and serum was tested by radio-HPLC analysis of its radiochemical purity after incubation at room temperature for 0.5 , 1 , 2 and 4 h.

Data set [6] has as its system A549-PD-L2 xenograft models. The data set is described as follows: Static PET/CT imaging with blocking. The following applies: 60 min, pretreatment i.v. with excess HN11-1 / HN11-2 (10 mg/kg), n = 3. It is filed as in vivo, BALB/C nude mice. How it is done:
as §1

Data set [7] can be described thus: In vitro stability in serum (radio-HPLC). It is filed as in vitro ADME. Particulars: room temperature, over 4 h (0.5, 1, 2, 4 h), 3.74 MBq, read-out: in vitro stability in serum (radiochemical purity). How it is done:
as §2

For data set [8], the system named is A549-PD-L2 tumor xenograft models. The data set is described as follows: Dynamic micro-PET imaging in A549-PD-L2 xenografts. Particulars: n = 3. It counts as in vivo, BALB/C nude mice. How it is done:
Micro-PET imaging was conducted using an Inveon PET scanner (Siemens, Germany). Dynamic PET examine were acquired over the first 60 min following the simultaneous injection of 7.4 to 9.25 MBq (200 to 250 μCi) of [^68Ga]Ga-HN11-1 and [^68Ga]Ga-HN11-2. After reconstructing the images and delineating the regions of interest (ROIs), time-radioactivity curves were plotted to obtain the Tumor/Muscle (T/M) ratios. %ID/g represents the percentage of the injected dose of the radiotracer that accumulates in a specific tissue per gram of tissue weight. For the biodistribution study, the xenograft models received an intravenous injection of 3.7 to 5.5 MBq (100 to 150 μCi) of [^68Ga]Ga-HN11-1. After the designated period (10, 30, 60, and 90 min), the mice were euthanized, and important tissues and organs were dissected and collected. The samples were counted using the γ-counter for determining the %ID/g, presented as mean ± standard deviation (SD).
A549 cell lines were provided by the China Center for Type Culture Collection (CCTCC) and cultured in RPMI-1640 medium supplemented with 10 % fetal bovine serum and 100 U/mL penicillin-streptomycin. The lentivirus system was implemented to introduce PD-L2 (PDCD1LG2) over-expressed cDNA into the A549 cells. The viral vectors were produced in 293T cells and co-transfected with the psAX2, pMD2G and PD-L2 plasmids. A549 cells transduced with the vectors were selectively grown in 1.6 μg/mL puromycin. Transfection efficiency was identified by WB and real-time quantitative PCR. All the cells were cultured in an incubator at 37° C with 5 % CO2 atmosphere. A549 and A549-PD-L2 cells (5 × 10^6, 200 μL)were subcutaneously implanted into the right shoulder of BALB/C nude mice (male, 4-6 weeks), respectively. When the tumors reached to 5 - 8 mm in diameter, the mice were subjected to in vivo and ex vivo studies. All the mice were purchased from the Laboratory Animal Center of Central South University.

Another data set has as its system patients with NSCLC. The data set is described as follows: Clinical response to anti-PD-1 therapy in NSCLC patients. It counts as in vivo, human. From the text: We evaluated the clinical relevance between the expression of PD-L2 in tumor tissues and anti-PD-1 immunotherapy (pembrolizumab) in 49 patients with NSCLC, as assessed by PD-L2 IHC score data from these patients. The median age was 60 years (range, 41 to 86 y), male (81.6%). About 57.1% of the patients had distant metastasis (M1 stage), and 42.9% of the patients had received ≥2 other treatment before anti-PD-1 therapy (Table). […] patients were classified as PD-L1-positive expression, […] as PD-L2-positive expression, 21 (42.9%) as PD-L1 negative, and 27 (55.1%) as PD-L2 negative (Fig. 1A). […] (Fig. 1A). […] (Fig. 1A). In the 49 patients, PD-L2-positive was identified as a statistically significant predictor of better PFS (P < 0.05) (Fig. 1B), but it was not a statistically significant predictor of relapse-free survival (Fig. 1C).

Turning to `OC[C@H]1O[C@@H](O)[C@H]([18F])[C@@H](O)[C@@H]1O` [[^18F]F-FDG], in data set [1], the effective dose is recorded as 1.9 × 10^−2 mSv/MBq. Further, the “FDG SUVmax” value in data set [2] (patient 1, NSCLC, lung) came to 15.5; in [2] (patient 2, NSCLC, lung), 25.9; in data set [2] (patient 3, rHNSCC, buccal), 13.7; in data set [2] (patient 4, rHNSCC, buccal) it was 4.0; in data set [2] (patient 5, mHNSCC, tongue), 4.0; in data set [2] (patient 6, mHNSCC, laryngeal), 3.7.

Take `CC[C@H](C)[C@H](NC(=O)[C@H](CCCNC(=N)N)NC(=O)[C@H](C)NC(=O)[C@H](CCCCN)NC(=O)[C@@H](NC(=O)[C@H](CCCNC(=N)N)NC(=O)[C@H](CCCNC(=N)N)NC(=O)[C@@H](NC(=O)[C@H](Cc1c[nH]cn1)NC(=O)COCCOCCOCCNC(=O)CN1CCN(CC(=O)O)CCN(CC(=O)O)CC1)C(C)C)[C@@H](C)O)C(=O)N[C@@H](CCCNC(=N)N)C(=O)N[C@@H](CC(N)=O)C(=O)O` [[^68Ga]Ga-HN11-2, metal not drawn] ({NOTA-AEEEA}-HVRRTKARIRN-OH): the cell uptake rate is 1.55 ± 0.08% with A549-PD-L2 cell lines (30 min incubation, γ-counter) and 2.47 ± 0.13% with A549-PD-L2 cell lines (60 min incubation). Besides, the “cell uptake, block group” value in the data set with A549-PD-L2 cell lines (60 min, with excess (10 μg) of cold HN11-1 / HN11-2 precursor) amounted to 0.61 ± 0.03%. The half-life in blood in data set [3] came out at 22.66 min. Besides, in data set [4], the log distribution coefficient (logD) (usually lipophilicity at a set pH, counting ionised and neutral species) is -0.27 ± 0.0018. Moreover, the “in vitro stability in saline (radiochemical purity)” value in data set [5] is > 95%. In addition, the “tumor uptake after blocking” value in data set [6] is 0.82 ± 0.04 %ID/g. Also, in data set [7], the remaining at 4 h is > 95%. For the same compound, the tumor uptake in data set [8] (10 min after injection) was found to be 1.71 ± 0.14 %ID/g; in [8] (20 min after injection) it was 2.17 ± 0.12 %ID/g; in data set [8] (30 min after injection), 2.29 ± 0.17 %ID/g; in [8] (40 min after injection), 2.10 ± 0.03 %ID/g; in data set [8] (50 min after injection), 1.97 ± 0.07 %ID/g; in [8] (60 min after injection), 1.82 ± 0.06 %ID/g.

For pembrolizumab: anti-PD-1 immunotherapy, the response rate in the data set on patients with NSCLC (PD-L1-positive alone, 95% CI 63.4 to 93.8) is on record as 78.6%; in the data set on patients with NSCLC (PD-L2-positive alone, 95% CI 59.8 to 94.8) it was 77.3%; in the data set with patients with NSCLC (both PD-L1 and PD-L2 negative group, 95% CI 29.6 to 90.4), 60.0%. The objective response rate with patients with NSCLC (PD-L1-positive but PD-L2-negative, 95% CI 56.3 to 96.6) is 76.5%; with patients with NSCLC (PD-L1-positive while PD-L2 unknown, 95% CI 63.4 to 93.8), 78.6%; with patients with NSCLC (both PD-L1- and PD-L2-positive, 95% CI 59.0 to 100.0) it was 81.8%.
